{
  "source": "ChEMBL document CHEMBL5380850",
  "about": "“Discovery of the First Raptor (Regulatory-Associated Protein of mTOR) Inhibitor as a New Type of Antiadipogenic Agent” (J Med Chem, 2023)",
  "key": {"[1]": {"system": "3T3-L1", "test": "Anti-adipogenic activity against mouse 3T3-L1 cells assessed as decrease in triglyceride level at 0.01 to 10 uM by Oil Red O staining based microscopic analysis", "format": "functional, cell-based", "conditions": "dose 0.01-10 µM"}, "[2]": {"system": "3T3-L1", "test": "Anti-adipogenic activity against mouse 3T3-L1 cells at adipogenesis stage assessed as decrease in triglyceride level at 1 uM and measured upto 3 days by Oil Red O staining based spectroscopic analysis", "format": "functional, cell-based", "conditions": "time <= 3.0 day"}, "[3]": {"system": "3T3-L1", "test": "Anti-adipogenic activity against mouse 3T3-L1 cells at lipogenesis stage assessed as decrease in triglyceride level at 1 uM and measured on 3 to 6 days by Oil Red O staining based spectroscopic analysis", "format": "functional, cell-based", "conditions": "time 3-6 day"}, "[4]": {"system": "3T3-L1", "test": "Anti-adipogenic activity against mouse 3T3-L1 cells assessed as downregulation of FAS mRNA expression level at 0.1 to 1 uM incubated for 6 days by RT-qPCR analysis", "format": "functional, cell-based", "conditions": "dose 0.1-1 µM, time 6.0 day"}, "[5]": {"system": "3T3-L1", "test": "Anti-adipogenic activity against mouse 3T3-L1 cells assessed as downregulation of DGAT2 mRNA expression level at 0.1 to 1 uM incubated for 6 days by RT-qPCR analysis", "format": "functional, cell-based", "conditions": "dose 0.1-1 µM, time 6.0 day"}, "[6]": {"system": "3T3-L1", "test": "Anti-adipogenic activity against mouse 3T3-L1 cells assessed as downregulation of PPARgamma protein expression level at 0.1 to 1 uM incubated for 24 hrs by Western blot analysis", "format": "functional, cell-based", "conditions": "dose 0.1-1 µM"}, "[7]": {"system": "Mus musculus", "test": "Anti-obesity activity in high fat diet-induced obese C57BL/6J mouse assessed as decrease in body weight at 40 mg/kg, ip administered every two days for 46 days (Rvb=52.5%)", "format": "functional", "set-up": "scale not given: the % may be the effect or the level left", "conditions": "time 46 day"}, "[8]": {"system": "Mus musculus", "test": "Anti-obesity activity in high fat diet-induced obese C57BL/6J mouse assessed as reduction in visceral fat content by measuring epididymis white adipose tissue weight at 40 mg/kg, ip administered every two days for 46 days", "format": "functional, organism-based", "conditions": "time 46.0 day"}, "[9]": {"system": "Mus musculus", "test": "Anti-obesity activity in high fat diet-induced obese C57BL/6J mouse assessed as reduction in visceral fat content by measuring subcutis white adipose tissue weight at 40 mg/kg, ip administered every two days for 46 days", "format": "functional, organism-based", "conditions": "time 46.0 day"}, "[10]": {"system": "Mus musculus", "test": "Anti-obesity activity in high fat diet-induced obese C57BL/6J mouse assessed as decrease in size of adipocytes in epididymis white adipose tissue at 40 mg/kg, ip administered every two days for 46 days by H and E staining based microscopy", "format": "functional, organism-based", "conditions": "time 46.0 day"}, "[11]": {"system": "Mus musculus", "test": "Anti-obesity activity in high fat diet-induced obese C57BL/6J mouse model assessed as increase in glucose clearance at 40 mg/kg, ip administered every two days for 3 weeks pretreated with compound and followed by glucose challenge and measured upto 120 mins by IPGTT assay", "format": "functional, organism-based"}, "[12]": {"system": "Mus musculus", "test": "Anti-obesity activity in high fat diet-induced obese C57BL/6J mouse model assessed as reduction in plasma glucose level at 40 mg/kg, ip administered every two days for 14 days", "format": "functional, organism-based", "conditions": "time 14.0 day"}, "[13]": {"system": "Mus musculus", "test": "Anti-obesity activity in high fat diet-induced obese C57BL/6J mouse model assessed as reduction in plasma insulin level at 40 mg/kg, ip administered every two days for 46 days", "format": "functional, organism-based", "conditions": "time 46.0 day"}, "[14]": {"system": "Mus musculus", "test": "Anti-obesity activity in high fat diet-induced obese C57BL/6J mouse model assessed as reduction in free fatty acid level at 40 mg/kg, ip administered every two days for 46 days", "format": "functional, organism-based", "conditions": "time 46.0 day"}, "[15]": {"system": "Mus musculus", "test": "Anti-obesity activity in high fat diet-induced obese C57BL/6J mouse model assessed as reduction in hepatic triglyceride level at 40 mg/kg, ip administered every two days for 46 days", "format": "functional, organism-based", "conditions": "time 46.0 day"}, "[16]": {"system": "Mus musculus", "test": "Anti-obesity activity in high fat diet-induced obese C57BL/6J mouse model assessed as reduction in plasma ALT level at 40 mg/kg, ip administered every two days for 46 days", "format": "functional, organism-based", "conditions": "time 46.0 day"}, "[17]": {"system": "Mus musculus", "test": "Anti-obesity activity in high fat diet-induced obese C57BL/6J mouse model assessed as change in daily food uptake at 40 mg/kg, ip administered every two days for 46 days", "format": "functional, organism-based", "conditions": "time 46.0 day"}, "[18]": {"system": "Mus musculus", "test": "Anti-obesity activity in high fat diet-induced obese C57BL/6J mouse model assessed as increase in COX4 expression level in inguen white adipose tissue at 40 mg/kg, ip administered every two days for 46 days by immunohistochemical analysis", "format": "functional, organism-based", "conditions": "time 46.0 day"}, "[19]": {"system": "Mus musculus", "test": "Anti-obesity activity in high fat diet-induced obese C57BL/6J mouse model assessed as increase in […] expression level in inguen white adipose tissue at 40 mg/kg, ip administered every two days for 46 days by immunohistochemical analysis", "format": "functional, organism-based", "conditions": "time 46.0 day"}, "[20]": {"system": "Mus musculus", "test": "Anti-obesity activity in high fat diet-induced obese C57BL/6J mouse model assessed as decrease in brown adipocyte size at 40 mg/kg, ip administered every two days for 46 days by Hand E staining based microscopic analysis", "format": "functional, organism-based", "conditions": "time 46.0 day"}, "[21]": {"system": "Mus musculus", "test": "Anti-obesity activity in high fat diet-induced obese C57BL/6J mouse model assessed as increase in COX4 expression level in brown adipocyte at 40 mg/kg, ip administered every two days for 46 days by immunohistochemical analysis", "format": "functional, organism-based", "conditions": "time 46.0 day"}, "[22]": {"system": "Mus musculus", "test": "Anti-obesity activity in high fat diet-induced obese C57BL/6J mouse model assessed as increase in PGC-1alpha expression level in brown adipocyte at 40 mg/kg, ip administered every two days for 46 days by immunohistochemical analysis", "format": "functional, organism-based", "conditions": "time 46.0 day"}, "[23]": {"biological_target": "Serine/threonine-protein kinase mTOR (Mus musculus) (UniProt Q9JLN9)", "test": "Inhibition of mTOR signalling in mouse 3T3-L1 cells assessed as upregulation of LC3I expression level at 0.1 to 10 uM incubated for 24 hrs by Western blot analysis", "format": "cell-based", "conditions": "dose 0.1-10 µM"}, "[24]": {"biological_target": "Regulatory-associated protein of mTOR (Homo sapiens, UniProt Q8N122)", "sequence (Q8N122 whole entry)": "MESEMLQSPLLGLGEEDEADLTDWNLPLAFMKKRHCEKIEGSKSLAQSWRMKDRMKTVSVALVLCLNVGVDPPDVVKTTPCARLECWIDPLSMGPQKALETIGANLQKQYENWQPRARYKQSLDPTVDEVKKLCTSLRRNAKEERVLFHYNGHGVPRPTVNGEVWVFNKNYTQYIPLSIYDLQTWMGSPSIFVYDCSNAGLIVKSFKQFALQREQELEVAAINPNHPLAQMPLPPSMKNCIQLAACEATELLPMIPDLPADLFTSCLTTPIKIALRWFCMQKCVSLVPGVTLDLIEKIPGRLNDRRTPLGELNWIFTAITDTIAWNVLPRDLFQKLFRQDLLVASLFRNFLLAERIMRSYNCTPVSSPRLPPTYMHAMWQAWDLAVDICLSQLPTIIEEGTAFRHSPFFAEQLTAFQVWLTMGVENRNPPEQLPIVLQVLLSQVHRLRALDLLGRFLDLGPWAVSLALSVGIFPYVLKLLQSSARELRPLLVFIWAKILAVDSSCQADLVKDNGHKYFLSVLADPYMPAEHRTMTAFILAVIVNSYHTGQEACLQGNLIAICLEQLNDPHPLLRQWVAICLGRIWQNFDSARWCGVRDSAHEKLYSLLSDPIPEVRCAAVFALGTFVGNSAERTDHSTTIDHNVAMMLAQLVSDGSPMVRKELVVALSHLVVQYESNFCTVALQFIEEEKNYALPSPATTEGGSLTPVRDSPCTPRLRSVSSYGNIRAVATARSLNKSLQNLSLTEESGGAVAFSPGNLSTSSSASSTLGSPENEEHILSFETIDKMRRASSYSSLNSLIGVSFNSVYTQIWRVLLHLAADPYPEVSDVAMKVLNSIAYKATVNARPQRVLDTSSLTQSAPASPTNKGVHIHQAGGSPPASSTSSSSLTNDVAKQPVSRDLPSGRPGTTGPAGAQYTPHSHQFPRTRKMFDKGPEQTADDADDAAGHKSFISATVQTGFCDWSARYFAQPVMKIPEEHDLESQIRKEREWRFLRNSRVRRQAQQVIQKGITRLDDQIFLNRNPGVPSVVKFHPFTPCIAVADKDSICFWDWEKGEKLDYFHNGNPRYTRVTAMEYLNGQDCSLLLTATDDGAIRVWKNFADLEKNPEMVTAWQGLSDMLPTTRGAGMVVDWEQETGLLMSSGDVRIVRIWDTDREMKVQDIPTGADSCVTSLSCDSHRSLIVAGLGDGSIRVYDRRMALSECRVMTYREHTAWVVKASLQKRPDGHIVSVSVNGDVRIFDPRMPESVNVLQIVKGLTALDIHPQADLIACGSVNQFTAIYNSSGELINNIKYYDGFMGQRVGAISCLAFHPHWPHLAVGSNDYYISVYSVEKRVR", "test": "Binding affinity to recombinant human Raptor and measured for 200 sec by SPR analysis"}, "[25]": {"system": "3T3-L1", "test": "Anti-adipogenic activity in SiRNA mediated Raptor knockdown mouse 3T3-L1 cells assessed as decrease in triglyceride level at 10 uM by Oil Red O staining based microscopic analysis", "format": "functional, cell-based"}, "[26]": {"system": "3T3-L1", "test": "Anti-adipogenic activity in SiRNA mediated Raptor knockdown mouse 3T3-L1 cells assessed as C/EBPalpha expression level at 10 uM by Western blot analysis", "format": "functional, cell-based"}, "[27]": {"system": "3T3-L1", "test": "Anti-adipogenic activity in SiRNA mediated Raptor knockdown mouse 3T3-L1 cells assessed as PPARgamma expression level at 10 uM by Western blot analysis", "format": "functional, cell-based"}, "[28]": {"system": "3T3-L1", "test": "Anti-adipogenic activity in SiRNA mediated Raptor knockdown mouse 3T3-L1 cells assessed as ACC expression level at 10 uM by Western blot analysis", "format": "functional, cell-based"}, "[29]": {"biological_target": "mTORC1 (Mus musculus) (UniProt Q9JLN9)", "test": "Inhibition of mTORC1 formation in mouse 3T3-L1 cells assessed as Raptor expression level at 10 uM incubated for 24 hrs by reciprocal co-immunoprecipitation assay", "format": "cell-based"}, "[30]": {"biological_target": "mTORC1 (Mus musculus) (UniProt Q9JLN9)", "test": "Inhibition of mTORC1 formation in mouse 3T3-L1 cells assessed as mLST8 expression level at 10 uM incubated for 24 hrs by reciprocal co-immunoprecipitation assay", "format": "cell-based"}, "[31]": {"biological_target": "mTORC1 (Mus musculus) (UniProt Q9JLN9)", "test": "Inhibition of mTORC1 formation in siRNA mediated Raptor knockdown mouse 3T3-L1 cells assessed as decrease in phosphorylaed-S6K1 expression level at 10 uM incubated for 24 hrs by Western blot analysis", "format": "cell-based"}, "[32]": {"system": "3T3-L1", "test": "Anti-adipogenic activity in mouse 3T3-L1 cells assessed as increase in mCherry-LC3B-labeled autophagosomes at 10 uM by Immunofluorescence analysis", "format": "functional, cell-based"}, "[33]": {"system": "3T3-L1", "test": "Anti-adipogenic activity in siRNA-mediated LC3B knockdown mouse 3T3-L1 cells assessed as decrease in triglyceride level at 10 uM by Oil Red O staining based spectroscopic analysis", "format": "functional, cell-based"}},
  "note": "The source made the active and inactive calls. The rule behind the calls is not given here.",
  "data": [
    {"smiles": "C=C(C)[C@@]12OC3(c4ccccc4)O[C@@H]1[C@@H]1[C@H](O)[C@](Cl)(COC(=O)c4ccccc4)[C@@H](O)[C@]4(O)C(=O)C(C)=C[C@H]4[C@@]1(O3)[C@H](C)[C@H]2OC(C)=O", "values": [
      {"measurement": "Activity", "setting": "[1]", "value": "Active"},
      {"measurement": "Activity", "setting": "[2]", "value": "inactive"},
      {"measurement": "Activity", "setting": "[3]", "value": "inactive"},
      {"measurement": "Activity", "setting": "[4]", "value": "Active"},
      {"measurement": "Activity", "setting": "[5]", "value": "Active"},
      {"measurement": "Activity", "setting": "[6]", "value": "Active"},
      {"measurement": "Activity", "setting": "[7]", "value": 26.8, "unit": "%"},
      {"measurement": "Activity", "setting": "[8]", "value": "Active"},
      {"measurement": "Activity", "setting": "[9]", "value": "Active"},
      {"measurement": "Activity", "setting": "[10]", "value": "Active"},
      {"measurement": "Activity", "setting": "[11]", "value": "Active"},
      {"measurement": "Activity", "setting": "[12]", "value": "Active"},
      {"measurement": "Activity", "setting": "[13]", "value": "Active"},
      {"measurement": "Activity", "setting": "[14]", "value": "Active"},
      {"measurement": "Activity", "setting": "[15]", "value": "Active"},
      {"measurement": "Activity", "setting": "[16]", "value": "Active"},
      {"measurement": "Activity", "setting": "[17]", "value": "inactive"},
      {"measurement": "Activity", "setting": "[18]", "value": "Active"},
      {"measurement": "Activity", "setting": "[19]", "value": "Active"},
      {"measurement": "Activity", "setting": "[20]", "value": "Active"},
      {"measurement": "Activity", "setting": "[21]", "value": "Active"},
      {"measurement": "Activity", "setting": "[22]", "value": "Active"},
      {"measurement": "inhibition", "setting": "[23]", "value": "Active"},
      {"measurement": "Kd", "setting": "[24]", "value": 20.4, "unit": "µM"},
      {"measurement": "Activity", "setting": "[25]", "value": "Active"},
      {"measurement": "Activity", "setting": "[26]", "value": "Active"},
      {"measurement": "Activity", "setting": "[27]", "value": "Active"},
      {"measurement": "Activity", "setting": "[28]", "value": "Active"},
      {"measurement": "inhibition", "setting": "[29]", "value": "Active"},
      {"measurement": "inhibition", "setting": "[30]", "value": "Active"},
      {"measurement": "inhibition", "setting": "[31]", "value": "Active"},
      {"measurement": "Activity", "setting": "[32]", "value": "Active"},
      {"measurement": "Activity", "setting": "[33]", "value": "Active"}
    ]}
  ]
}
